Laboratory results taken from patent publication US9820951B2, “Pulmonary disease treatment and diagnosis based on Arhgef1” (NATIONAL JEWISH HEALTH, A NON-PROFIT ORGANIZATION, priority 2011, dated 2017).

Test system: MMP2
Test: MMP2 activity by gelatin zymography in conditioned media of mouse peritoneal macrophages cultured on fibronectin
Format: cell-based
Details: wild type and Arhgef1−/− macrophages; 20 mM aspirin or 28 μM L-655,240
Method: FIG. 12. Thromboxane receptor signaling is necessary for fibronectin-induced MMP9 production by macrophages and is attenuated by Arhgef1. A, representative gelatin zymograms of conditioned media from macrophages cultured on plastic (ctl) or FN and treated with 1.56 or 6.25 μM of the thromboxane receptor antagonist PTA2. Wild type (+/+) and Arhgef1^−/− (−/−) samples from separate zymograms are shown. B, quantitation of MMP9 activity as determined by densitometric analysis of zymograms in A. The results are representative of two independent experiments. C, representative zymograms from conditioned media from macrophages cultured on plastic or fibronectin and treated with 28 μM of the thromboxane receptor antagonist L-655,240. D, quantitation of MMP9 activity as determined by densitometric analysis of zymograms in C. The results are compiled from two independent experiments with n=4 for both wild type (open bars) and Arhgef1^−/− (black bars) samples. […] E, MMP2 activity was quantitated in conditioned media as previously described for MMP9. […] The data represent the means±S.E. F, MMP9 activity was quantitated as previously described and normalized to a percentage of fibronectin response for each genotype. […] G, relative Mmp9 expression was measured by qPCR in macrophages cultured on fibronectin in the presence of the thromboxane receptor agonist (U-46619, 10 nM), S1P (40 nM), or LPA (10 μM). […]

With `CC(=O)Oc1ccccc1C(=O)O` [aspirin] the MMP2 activity was “not affected”.
